Among the data in ChEMBL document CHEMBL1131587, “Novel peptidyl phosphorus derivatives as inhibitors of human calpain I” (J Med Chem, 1998) are IC50 values, retold here.

Molecules are shown by their SMILES.

In this assay the target is T1, Calpain-1 catalytic subunit (Homo sapiens, UniProt P07384).
T1 sequence (P07384 whole entry): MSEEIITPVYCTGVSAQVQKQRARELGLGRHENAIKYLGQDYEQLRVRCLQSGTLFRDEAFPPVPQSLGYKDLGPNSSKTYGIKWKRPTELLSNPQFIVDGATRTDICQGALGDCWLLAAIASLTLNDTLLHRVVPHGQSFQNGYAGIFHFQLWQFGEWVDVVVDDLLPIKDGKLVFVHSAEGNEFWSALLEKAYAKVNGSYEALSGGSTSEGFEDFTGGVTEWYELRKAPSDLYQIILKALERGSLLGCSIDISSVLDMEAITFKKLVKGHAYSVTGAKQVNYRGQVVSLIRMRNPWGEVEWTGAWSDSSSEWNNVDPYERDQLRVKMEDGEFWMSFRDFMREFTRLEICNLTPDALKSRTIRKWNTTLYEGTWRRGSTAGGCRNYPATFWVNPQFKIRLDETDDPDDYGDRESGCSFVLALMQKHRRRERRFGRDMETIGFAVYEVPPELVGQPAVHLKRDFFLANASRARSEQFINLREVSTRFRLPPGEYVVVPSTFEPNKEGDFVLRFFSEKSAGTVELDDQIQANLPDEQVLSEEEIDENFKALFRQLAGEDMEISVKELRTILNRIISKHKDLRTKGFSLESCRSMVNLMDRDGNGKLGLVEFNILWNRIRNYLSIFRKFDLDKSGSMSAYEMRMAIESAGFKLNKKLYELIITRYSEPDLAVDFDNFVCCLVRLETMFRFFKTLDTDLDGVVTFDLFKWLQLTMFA
As to the kind of experiment: inhibitory activity measured against recombinant human Calpain-I receptor.
The term IC50 denotes the concentration that inhibits the measured activity by half. As for `CCCCOP(=O)(OCCCC)C(=O)[C@@H](CC(C)C)NC(=O)C(CC(C)C)NC(=O)OCc1ccccc1` (stereo not given in full), the IC50 was over 10 µM.
Turning to `CCOP(=O)(C(=O)[C@@H](CC(C)C)NC(=O)C(CC(C)C)NC(=O)OCc1ccccc1)c1ccccc1` (stereo not given in full), the IC50 came to 0.37 µM.
Next, `COP(=O)(O)C(=O)[C@@H](CC(C)C)NC(=O)C(CC(C)C)NC(=O)OCc1ccccc1` (stereo not given in full): 5.2 µM.
On to `COP(=O)(OC)C(=O)[C@@H](Cc1ccccc1)NC(=O)C(NC(=O)OCc1ccccc1)C(C)C` (stereo not given in full), for which the IC50 was 7.4 µM.
For `COP(=O)(OC)C(=O)[C@@H](CC(C)C)NC(=O)C(CC(C)C)NC(=O)OCc1ccccc1` (stereo not given in full), the IC50 worked out at 0.43 µM.
The result for `CC(C)CC(NC(=O)OCc1ccccc1)C(=O)N[C@H](CC(C)C)C(=O)P(=O)(c1ccc(Cl)cc1)c1ccc(Cl)cc1` (stereo not given in full) reads 0.35 µM; that for `CC(C)CC(NC(=O)OCc1ccccc1)C(=O)N[C@H](CC(C)C)C(=O)P(C)(C)=O` (stereo not given in full), over 10 µM; that for `CCOC(=O)[C@@H](CC(C)C)NC(=O)C(CC(C)C)NC(=O)OCc1ccccc1` (stereo not given in full), 0.6 µM.
Next, `CCCCOP(=O)(OCCCC)C(=O)[C@@H](Cc1ccccc1)NC(=O)C(NC(=O)OCc1ccccc1)C(C)C` (stereo not given in full): over 10 µM; `CC(C)C(NC(=O)OCc1ccccc1)C(=O)N[C@H](Cc1ccccc1)C(=O)P(=O)(OCc1ccccc1)OCc1ccccc1` (stereo not given in full): 6 µM.
